From US12077503B2, “Substituted cyclic amides and their use as herbicides” (FMC CORPORATION, priority 2015, dated 2024)

Key:
Format in all cases: in vivo
[1] = system: ryegrass, Italian (Italian ryegrass, Lolium multiflorum); assay: Test A postemergence; settings: Lolium multiflorum, post-emergence, 240 h
Method in brief: (§1)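 In a loam soil and sand blend, planted seeds got a preemergence directed soil spray, and young plants at the one- to two-leaf stage, 2–10 cm high, got a postemergence application; ~10 d greenhouse hold; injury rated visually, 0 = none, 100 = complete control.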

[2] = system: wheat (Triticum aestivum); assay: Test A postemergence; settings: Triticum aestivum, post-emergence, 240 h
Method in brief: as §1

[3] = system: corn (Zea mays); assay: Test A postemergence; settings: Zea mays, post-emergence, 240 h
Method in brief: as §1

[4] = system: barnyardgrass (Echinochloa crus-galli); assay: Test A postemergence; settings: Echinochloa crus-galli, post-emergence, 240 h
Method in brief: as §1

[5] = system: pigweed (Amaranthus retroflexus); assay: Test A postemergence; settings: Amaranthus retroflexus, post-emergence, 240 h
Method in brief: as §1

[6] = system: Galium (catchweed bedstraw, Galium aparine); assay: Test A postemergence; settings: Galium, post-emergence, 240 h
Method in brief: as §1

[7] = system: ragweed (common ragweed, Ambrosia elatior); assay: Test A postemergence; settings: Ambrosia artemisiifolia, post-emergence, 240 h
Method in brief: as §1

[8] = system: blackgrass (Alopecurus myosuroides); assay: Test A postemergence; settings: Alopecurus myosuroides, post-emergence, 240 h
Method in brief: as §1

[9] = system: Kochia (Kochia scoparia); assay: Test A postemergence; settings: Bassia scoparia, post-emergence, 240 h
Method in brief: as §1

[10] = system: giant foxtail (Setaria faberii); assay: Test A postemergence; settings: Setaria faberi, post-emergence, 240 h
Method in brief: as §1

[11] = system: sedge, umbrella (small-flower umbrella sedge, Cyperus difformis); assay: Test B flooded paddy test; settings: Cyperus difformis, 250 g ai/ha, Flood; 0 to 100 scale where 0 is no effect and 100 is complete control; read-out: Sedge, Umbrella plant response rating
Method in brief: (§2)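 Evaluation by eye, against controls, occurred 13–15 d post-treatment in a greenhouse, using a 0 (no effect) to 100 (complete control) scale. Application was into the paddy water, 3 cm deep over the soil, on 2-leaf plants.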

[12] = system: barnyardgrass (Echinochloa crus-galli); assay: Test B flooded paddy test; settings: Echinochloa crus-galli, 250 g ai/ha, Flood; 0 to 100 scale where 0 is no effect and 100 is complete control; read-out: Barnyardgrass plant response rating
Method in brief: as §2

[13] = system: ducksalad (Heteranthera limosa); assay: Test B flooded paddy test; settings: Heteranthera limosa, 250 g ai/ha, Flood; 0 to 100 scale where 0 is no effect and 100 is complete control; read-out: Ducksalad plant response rating
Method in brief: as §2

[14] = system: rice (Oryra sativa); assay: Test B flooded paddy test; settings: Oryza sativa, 250 g ai/ha, Flood; 0 to 100 scale where 0 is no effect and 100 is complete control; read-out: Rice plant response rating
Method in brief: as §2

[15] = system: ryegrass, Italian (Italian ryegrass, Lolium multiflorum); assay: Test A preemergence; settings: Lolium multiflorum, pre-emergence, 240 h, 0 to 100 scale where 0 is no effect and 100 is complete control, read-out: Ryegrass, Italian plant response rating
Method in brief: as §1

[16] = system: barnyardgrass (Echinochloa crus-galli); assay: Test A preemergence; settings: Echinochloa crus-galli, pre-emergence, 240 h, 0 to 100 scale where 0 is no effect and 100 is complete control, read-out: Barnyardgrass plant response rating
Method in brief: as §1

[17] = system: pigweed (Amaranthus retroflexus); assay: Test A preemergence; settings: Amaranthus retroflexus, pre-emergence, 240 h, 0 to 100 scale where 0 is no effect and 100 is complete control, read-out: Pigweed plant response rating
[18] = system: ragweed (common ragweed, Ambrosia elatior); assay: Test A preemergence; settings: Ambrosia artemisiifolia, pre-emergence, 240 h, 0 to 100 scale where 0 is no effect and 100 is complete control, read-out: Ragweed plant response rating
Method in brief: as §1

[19] = system: Kochia (Kochia scoparia); assay: Test A preemergence; settings: Bassia scoparia, pre-emergence, 240 h, 0 to 100 scale where 0 is no effect and 100 is complete control, read-out: Kochia plant response rating
Method in brief: as §1

[20] = system: giant foxtail (Setaria faberii); assay: Test A preemergence; settings: Setaria faberi, pre-emergence, 240 h, 0 to 100 scale where 0 is no effect and 100 is complete control, read-out: Foxtail, Giant plant response rating
Method in brief: as §1

[21] = 125 g ai/ha, preemergence, approx. 10 d

O=C1NC[C@H](c2csc3c2CCCC3)[C@H]1C(=O)Nc1cccc(F)c1F [Compound 1163]
pest or weed control at 125 g/ha ([1]; 125 g ai/ha, postemergence, visual injury vs untreated controls after approx. 10 d, 0 = no effect, 100 = complete control, read-out: Ryegrass, Italian plant response rating (0 to 100 scale)): 0%
pest or weed control at 31 g/ha ([1]; Postemergence, 31 g ai/ha, visual injury after approx. 10 d, 0 to 100 scale, 0 no effect, 100 complete control, read-out: Plant response rating, Ryegrass, Italian): 0%
plant injury at 125 g/ha ([2]; 125 g ai/ha, postemergence, visual injury vs untreated controls after approx. 10 d, 0 = no effect, 100 = complete control, read-out: Wheat plant response rating (0 to 100 scale)): 0%
plant injury at 31 g/ha ([2]; Postemergence, 31 g ai/ha, visual injury after approx. 10 d, 0 to 100 scale, 0 no effect, 100 complete control, read-out: Plant response rating, Wheat): 0%
plant injury at 125 g/ha ([3]; 125 g ai/ha, postemergence, visual injury vs untreated controls after approx. 10 d, 0 = no effect, 100 = complete control, read-out: Corn plant response rating (0 to 100 scale)): 0%
Corn plant response rating (crop injury, 0 = no effect, 100 = complete kill) at 31 g/ha ([3]; Postemergence, 31 g ai/ha, visual injury after approx. 10 d, 0 to 100 scale, 0 no effect, 100 complete control): 0%
pest or weed control at 125 g/ha ([4]; 125 g ai/ha, postemergence, visual injury vs untreated controls after approx. 10 d, 0 = no effect, 100 = complete control, read-out: Barnyardgrass plant response rating (0 to 100 scale)): 60%
pest or weed control at 31 g/ha ([4]; Postemergence, 31 g ai/ha, visual injury after approx. 10 d, 0 to 100 scale, 0 no effect, 100 complete control, read-out: Plant response rating, Barnyardgrass): 30%
pest or weed control at 125 g/ha ([5]; 125 g ai/ha, postemergence, visual injury vs untreated controls after approx. 10 d, 0 = no effect, 100 = complete control, read-out: Pigweed plant response rating (0 to 100 scale)): 0%
pest or weed control at 31 g/ha ([5]; Postemergence, 31 g ai/ha, visual injury after approx. 10 d, 0 to 100 scale, 0 no effect, 100 complete control, read-out: Plant response rating, Pigweed): 0%
pest or weed control at 125 g/ha ([6]; 125 g ai/ha, postemergence, visual injury vs untreated controls after approx. 10 d, 0 = no effect, 100 = complete control, read-out: Galium plant response rating (0 to 100 scale)): 20%
pest or weed control at 31 g/ha ([6]; Postemergence, 31 g ai/ha, visual injury after approx. 10 d, 0 to 100 scale, 0 no effect, 100 complete control, read-out: Plant response rating, Galium): 0%
pest or weed control at 125 g/ha ([7]; 125 g ai/ha, postemergence, visual injury vs untreated controls after approx. 10 d, 0 = no effect, 100 = complete control, read-out: Ragweed plant response rating (0 to 100 scale)): 0%
pest or weed control at 31 g/ha ([7]; Postemergence, 31 g ai/ha, visual injury after approx. 10 d, 0 to 100 scale, 0 no effect, 100 complete control, read-out: Plant response rating, Ragweed): 0%
pest or weed control at 125 g/ha ([8]; 125 g ai/ha, postemergence, visual injury vs untreated controls after approx. 10 d, 0 = no effect, 100 = complete control, read-out: Blackgrass plant response rating (0 to 100 scale)): 20%
pest or weed control at 31 g/ha ([8]; Postemergence, 31 g ai/ha, visual injury after approx. 10 d, 0 to 100 scale, 0 no effect, 100 complete control, read-out: Plant response rating, Blackgrass): 0%
pest or weed control at 125 g/ha ([9]; 125 g ai/ha, postemergence, visual injury vs untreated controls after approx. 10 d, 0 = no effect, 100 = complete control, read-out: Kochia plant response rating (0 to 100 scale)): 0%
pest or weed control at 31 g/ha ([9]; Postemergence, 31 g ai/ha, visual injury after approx. 10 d, 0 to 100 scale, 0 no effect, 100 complete control, read-out: Plant response rating, Kochia): 0%
pest or weed control at 125 g/ha ([10]; 125 g ai/ha, postemergence, visual injury vs untreated controls after approx. 10 d, 0 = no effect, 100 = complete control, read-out: Foxtail, Giant plant response rating (0 to 100 scale)): 0%
pest or weed control at 31 g/ha ([10]; Postemergence, 31 g ai/ha, visual injury after approx. 10 d, 0 to 100 scale, 0 no effect, 100 complete control, read-out: Plant response rating, Foxtail, Giant): 0%
pest or weed control at 250 g/ha [11]: 0%
pest or weed control at 250 g/ha [12]: 30%
pest or weed control at 250 g/ha [13]: 95%
pest or weed control at 250 g/ha [14]: 0%
pest or weed control at 31 g/ha ([15]; 31 g ai/ha, Preemergence): 0%
pest or weed control at 125 g/ha [15, 21]: 0%
pest or weed control at 31 g/ha ([16]; 31 g ai/ha, Preemergence): 70%
pest or weed control at 125 g/ha [16, 21]: 90%
pest or weed control at 31 g/ha ([17]; 31 g ai/ha, Preemergence): 0%
pest or weed control at 125 g/ha [17, 21]: 0%
pest or weed control at 31 g/ha ([18]; 31 g ai/ha, Preemergence): 0%
pest or weed control at 125 g/ha [18, 21]: 0%
pest or weed control at 31 g/ha ([19]; 31 g ai/ha, Preemergence): 0%
pest or weed control at 125 g/ha [19, 21]: 20%
pest or weed control at 31 g/ha ([20]; 31 g ai/ha, Preemergence): 10%
pest or weed control at 125 g/ha [20, 21]: 60%
